The values that follow come from US9758492B2, “IDO inhibitors” (Bristol-Myers Squibb Company, priority 2013, dated 2017).

The target of the assay is IDO (Homo sapiens, UniProt P14902). Put plainly: LLE_IDO_ABS_DR (IDO assay).
IDO, sequence (P14902 whole entry): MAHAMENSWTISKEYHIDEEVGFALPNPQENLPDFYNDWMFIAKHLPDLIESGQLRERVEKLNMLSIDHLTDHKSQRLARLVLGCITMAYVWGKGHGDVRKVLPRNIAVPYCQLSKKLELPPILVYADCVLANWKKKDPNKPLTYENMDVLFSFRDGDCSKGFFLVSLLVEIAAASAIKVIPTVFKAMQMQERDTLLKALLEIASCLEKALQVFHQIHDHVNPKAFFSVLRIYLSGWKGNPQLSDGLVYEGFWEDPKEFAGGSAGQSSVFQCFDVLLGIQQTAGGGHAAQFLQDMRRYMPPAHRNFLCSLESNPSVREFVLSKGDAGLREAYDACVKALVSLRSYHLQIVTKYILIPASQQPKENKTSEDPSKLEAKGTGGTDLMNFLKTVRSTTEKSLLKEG
By IC50 is commonly meant the concentration at which inhibition is half-maximal. Read a low IC50 as higher potency. `CCCN(c1ccc(-c2ccccc2C(=O)O)cc1NC(=O)Nc1ccc(C)cc1)C1CCCC1` [Example 165, 4′-(cyclopentyl(propyl)amino)-3′-(3-p-tolylureido)biphenyl-2-carboxylic acid] had an IC50 of 10 nM.

For `CCCN(c1ccc(-c2cc(F)ccc2C(=O)O)cc1NC(=O)Nc1ccc(C)cc1)C1CCCC1` [Example 166, 4′-(cyclopentyl(propyl)amino)-5-fluoro-3′-(3-p-tolylureido) biphenyl-2-carboxylic acid], the IC50 worked out at 20 nM. Against the preceding compound, the IC50 is about 2-fold higher.

Consider `CCCN(c1ccc(-c2cc(F)ccc2C(=O)O)cc1NC(=O)Nc1ccccc1F)C1CCCC1` [Example 167, 4′-(cyclopentyl(propyl)amino)-5-fluoro-3′-(3-(2-fluorophenyl)ureido)biphenyl-2-carboxylic acid], for which it took 40 nM to reach half-maximal inhibition (IC50).

The compound `CCCN(c1ccc(-c2ccccc2C(=O)O)cc1NC(=O)Nc1ccccc1F)C1CCCC1` [Example 168, 4′-(cyclopentyl(propyl)amino)-3′-(3-(2-fluorophenyl)ureido) biphenyl-2-carboxylic acid] showed an IC50 of 30 nM. The IC50 values of the last two compounds are within 1.5-fold of each other.

`CCCN(c1ccc(-c2ccccc2-c2nnn[nH]2)cc1NC(=O)Nc1ccc(C)cc1)C1CCCC1` [Example 169, 1-(4-(cyclopentyl(propyl)amino)-2′-(1H-tetrazol-5-yl)biphenyl-3-yl)-3-p-tolylurea] showed a half-maximal inhibitory concentration (IC50) of 4.55 nM.

Turning to `CCCN(c1ccc(-c2ccccc2-c2nnn[nH]2)cc1NC(=O)Nc1ccccc1F)C1CCCC1` [Example 170, 1-(4-(cyclopentyl(propyl)amino)-2′-(1H-tetrazol-5-yl)biphenyl-3-yl)-3-(2-fluorophenyl)urea], the IC50 was determined as 5.68 nM. This IC50 and that of the compound before are within 1.5-fold of each other.

`Cc1ccc(NC(=O)Nc2cc(-c3cc(F)ccc3C(=O)O)ccc2N(CC(C)C)C2CCCC2)cc1` [Example 171, 4′-(cyclopentyl(isobutyl)amino)-5-fluoro-3′-(3-p-tolylureido)biphenyl-2-carboxylic acid] gave an IC50 of 20 nM.

Regarding `Cc1ccc(NC(=O)Nc2cc(-c3ccccc3C(=O)O)ccc2N(CC(C)C)C2CCCC2)cc1` [Example 172, 4′-(cyclopentyl(isobutyl)amino)-3′-(3-p-tolylureido)biphenyl-2-carboxylic acid], the IC50 turned out to be 10 nM.

`CC(C)CN(c1ccc(-c2ccccc2C(=O)O)cc1NC(=O)Nc1ccccc1F)C1CCCC1` [Example 173, 4′-(cyclopentyl(isobutyl)amino)-3′-(3-(2-fluorophenyl)ureido) biphenyl-2-carboxylic acid] displayed an IC50 of 10 nM.

`Cc1ccc(NC(=O)Nc2cc(-c3ccccc3-c3nnn[nH]3)ccc2N(CC(C)C)C2CCCC2)cc1` [Example 174, 1-(4-(cyclopentyl (isobutyl)amino)-2′-(1H-tetrazol-5-yl)biphenyl-3-yl)-3-p-tolylurea] had an IC50 of 9.92 nM. The IC50 values of the last two compounds are within 1.5-fold of each other.

Compound `CC(C)CN(c1ccc(-c2ccccc2-c2nnn[nH]2)cc1NC(=O)Nc1ccccc1F)C1CCCC1` [Example 175, 1-(4-(cyclopentyl (isobutyl)amino)-2′-(1H-tetrazol-5-yl)biphenyl-3-yl)-3-(2-fluorophenyl)urea] returned an IC50 of 4.36 nM.

`CC(C)CN(c1ccc(-c2cc(F)ccc2C(=O)O)cc1NC(=O)Nc1ccccc1F)C1CCCC1` [Example 176, 4′-(cyclopentyl(isobutyl)amino)-5-fluoro-3′-(3-(2-fluorophenyl)ureido) biphenyl-2-carboxylic acid] yielded an IC50 of 7.86 nM.

The compound `CCCCN(c1ccc(-c2ccccc2C(=O)O)cc1NC(=O)Nc1ccc(C)cc1)C1CCCCC1` [Example 177, 4′-(butyl(cyclohexyl)amino)-3′-(3-(p-tolyl)ureido)-[1,1′-biphenyl]-2-carboxylic acid] displayed an IC50 of 9.59 nM.

Turning to `CCCCN(c1ccc(-c2cc(F)ccc2C(=O)O)cc1NC(=O)Nc1ccc(C)cc1)C1CCCCC1` [Example 178, 4′-(butyl(cyclohexyl)amino)-5-fluoro-3′-(3-(p-tolyl)ureido)-[1,1′-biphenyl]-2-carboxylic acid], inhibition was half-maximal at 5.49 nM (IC50).

On to `Cc1ccc(NC(=O)Nc2cc(-c3ccccc3-c3nnn[nH]3)ccc2N(C)CC(C)C)cc1` [Example 179, 1-(4-(isobutyl(methyl)amino)-2′-(1H-tetrazol-5-yl)-[1,1′-biphenyl]-3-yl)-3-(p-tolyl)urea], for which the IC50 was determined as 50 nM.

Turning to `Cc1ccc(NC(=O)Nc2cc(-c3ccccc3C(=O)O)ccc2N(C)CC(C)C)cc1` [Example 180, 4′-(isobutyl(methyl)amino)-3′-(3-(p-tolyl)ureido)-[1,1′-biphenyl]-2-carboxylic acid], the midpoint of inhibition, the IC50, lay at 230 nM.

`Cc1ccc(NC(=O)Nc2cc(-c3cc(F)ccc3C(=O)O)ccc2N(C)CC(C)C)cc1` [Example 181, 5-fluoro-4′-(isobutyl(methyl)amino)-3′-(3-(p-tolyl)ureido)-[1,1′-biphenyl]-2-carboxylic acid] came in with an IC50 of 270 nM. The IC50 values of the last two compounds are within 1.5-fold of each other.

Consider `Cc1ccc(NC(=O)Nc2cc(-c3cc(F)ccc3C(=O)O)ccc2N(CC(C)C)C2CCC2)cc1` [Example 182, 4′-(cyclobutyl(isobutyl)amino)-5-fluoro-3′-(3-(p-tolyl)ureido)-[1,1′-biphenyl]-2-carboxylic acid], for which the IC50 came out at 50 nM.

`Cc1ccc(NC(=O)Nc2cc(-c3ccccc3C(=O)O)ccc2N(CC(C)C)C2CCC2)cc1` [Example 183, 4′-(cyclobutyl(isobutyl)amino)-3′-(3-(p-tolyl)ureido)-[1,1′-biphenyl]-2-carboxylic acid] showed an IC50 of 20 nM. This IC50 is about 2.5-fold lower than that of the compound before.

With `Cc1ccc(NC(=O)Nc2cc(-c3ccccc3-c3nnn[nH]3)ccc2N(CC(C)C)C2CCC2)cc1` [Example 184, 1-(4-(cyclobutyl(isobutyl)amino)-2′-(1H-tetrazol-5-yl)-[1,1′-biphenyl]-3-yl)-3-(p-tolyl)urea], the IC50 came to 10 nM.

Take `CCCN(Cc1ccccc1)c1ccc(-c2ccccc2-c2nnn[nH]2)cc1NC(=O)Nc1ccc(C)cc1` [Example 185, 1-(4-(benzyl(propyl)amino)-2′-(1H-tetrazol-5-yl)-[1,1′-biphenyl]-3-yl)-3-(p-tolyl)urea]: half-maximal inhibition (IC50) required 2.63 nM.

Take `CCCN(Cc1ccccc1)c1ccc(-c2cc(F)ccc2C(=O)O)cc1NC(=O)Nc1ccc(C)cc1` [Example 186, 4′-(benzyl(propyl)amino)-5-fluoro-3′-(3-(p-tolyl)ureido)-[1,1′-biphenyl]-2-carboxylic acid]: the IC50 is 30 nM.

In the case of `CCCN(Cc1ccccc1)c1ccc(-c2ccccc2C(=O)O)cc1NC(=O)Nc1ccc(C)cc1` [Example 187, 4′-(benzyl(propyl)amino)-3′-(3-(p-tolyl)ureido)-[1,1′-biphenyl]-2-carboxylic acid], the IC50 came to 20 nM.

Compound `Cc1ccc(NC(=O)Nc2cc(-c3ccccc3C(=O)O)ccc2N(CCC(C)C(F)(F)F)C2CCCCC2)cc1` (stereo not shown) [Example 188, 4′-(cyclohexyl(4,4,4-trifluoro-3-methylbutyl)amino)-3′-(3-(p-tolyl)ureido)-[1,1′-biphenyl]-2-carboxylic acid] had an IC50 of 290 nM.

Compound `Cc1ccc(NC(=O)Nc2cc(-c3cc(F)ccc3C(=O)O)ccc2N(CCC(C)C(F)(F)F)C2CCCCC2)cc1` (stereo not shown) [Example 189, 4′-(cyclohexyl(4,4,4-trifluoro-3-methylbutyl)amino)-5-fluoro-3′-(3-(p-tolyl)ureido)-[1,1′-biphenyl]-2-carboxylic acid] returned an IC50 of 480 nM. Compared with the last compound, the IC50 is about 1.7-fold higher.
